Assay results published in patent US10815274B2, “Immunogenic WT-1 peptides and methods of use thereof” (Memorial Sloan Kettering Cancer Center, priority 2012, dated 2020).
Where a SMILES comes first, the peptide text is derived from it.

Legend:
WT1+ leukemia = assay: Cr51 release assay, cytotoxic CTL response vs WT1+ leukemia expressing restricting HLA allele; type: cell-based, human; details: 50:1 E:T
WT1- leukemia = assay: Cr51 release assay, cytotoxic CTL response vs WT1- leukemia; type: cell-based, human; details: 50:1 E:T
[1] = system: WT1 peptide loaded autologous APC; assay: Cr51 release assay, cytotoxic CTL response vs peptide loaded autologous APC; type: cell-based, human; details: 50:1 E:T
PHA blasts = assay: Cr51 release assay, cytotoxic CTL response vs PHA blasts from the same leukemic patient; type: cell-based, human; details: 50:1 E:T, PHA blasts from same patients as the leukemia
WT1- autologous APC = assay: Cr51 release assay, cytotoxic CTL response vs unmodified autologous APC; type: cell-based, human; details: 50:1 E:T
[2] = system: WT1- allo APC with restricting HLA allele; assay: Cr51 release assay, cytotoxic CTL response vs unloaded allogeneic APC sharing restricting HLA allele; type: cell-based, human; details: 50:1 E:T
[3] = system: WT1+ allo APC with restricting HLA allele loaded with WT1 peptide; assay: Cr51 release assay, cytotoxic CTL response vs peptide loaded allogeneic APC sharing restricting HLA allele (HLA restriction); details: 50:1 E:T

Compound: CC(C)C[C@H](NC(=O)[C@H](C)NC(=O)CN)C(=O)N[C@@H](CCCNC(=N)N)C(=O)N[C@@H](CC(N)=O)C(=O)N1CCC[C@H]1C(=O)N[C@H](C(=O)N[C@@H](C)C(=O)N[C@@H](CS)C(=O)O)[C@@H](C)O [SEQ ID NO: 143] (H-GALRNPTAC-OH; N-terminus and C-terminus assumed)
- Cytotoxic CTL response, % vs WT1+ Leukemia (WT1+ leukemia; HLA allele B0702): 60%
- Cytotoxic CTL response, % vs WT1+ leukemia (WT1+ leukemia; HLA allele B0702): 60%
- Cytotoxic CTL response, % vs WT1- leukemia (WT1- leukemia; HLA allele B0702): 1%
- Cytotoxic CTL response, % vs WT1 peptide loaded autologous APC ([1]; HLA allele B0702): 30%
- Cytotoxic CTL response, % vs PHA blasts (PHA blasts; HLA allele B0702): 1%
- Cytotoxic CTL response, % vs WT1- autologous APC (WT1- autologous APC; HLA allele B0702): 0%
- Cytotoxic CTL response, % vs WT1- allo APC with restricting HLA allele ([2]; HLA allele B0702): 5%
- Cytotoxic CTL response, % vs WT1+ allo APC with restricting HLA allele loaded with WT1 peptide ([3]; HLA allele B0702): 22%

Compound: CC(C)C[C@H](NC(=O)[C@H](CO)NC(=O)[C@@H]1CCCN1C(=O)[C@@H]1CCCN1C(=O)[C@H](Cc1ccccc1)NC(=O)[C@H](Cc1c[nH]cn1)NC(=O)[C@@H]1CCCN1C(=O)[C@H](CC(C)C)NC(=O)[C@@H]1CCCN1)C(=O)O [SEQ ID NO: 144] (H-PLPHFPPSL-OH; N-terminus and C-terminus assumed)
- Cytotoxic CTL response, % vs WT1+ Leukemia (WT1+ leukemia; HLA allele A0201): 22%
- Cytotoxic CTL response, % vs WT1+ leukemia (WT1+ leukemia; HLA allele A0201): 22%
- Cytotoxic CTL response, % vs WT1- leukemia (WT1- leukemia; HLA allele A0201): 2%
- Cytotoxic CTL response, % vs WT1 peptide loaded autologous APC ([1]; HLA allele A0201): 30%
- Cytotoxic CTL response, % vs PHA blasts (PHA blasts; HLA allele A0201): 1%
- Cytotoxic CTL response, % vs WT1- autologous APC (WT1- autologous APC; HLA allele A0201): 0%
- Cytotoxic CTL response, % vs WT1- allo APC with restricting HLA allele ([2]; HLA allele A0201): 1%
- Cytotoxic CTL response, % vs WT1+ allo APC with restricting HLA allele loaded with WT1 peptide ([3]; HLA allele A0201): 24%

Compound: C[C@@H](O)[C@H](N)C(=O)N[C@@H](Cc1c[nH]cn1)C(=O)N[C@@H](CO)C(=O)N1CCC[C@H]1C(=O)N[C@H](C(=O)N[C@@H](Cc1c[nH]cn1)C(=O)N1CCC[C@H]1C(=O)N1CCC[C@H]1C(=O)N[C@@H](CCCNC(=N)N)C(=O)O)[C@@H](C)O [SEQ ID NO: 146] (H-THSPTHPPR-OH; N-terminus and C-terminus assumed)
- Cytotoxic CTL response, % vs WT1+ Leukemia (WT1+ leukemia; HLA allele A0201): 38%
- Cytotoxic CTL response, % vs WT1+ leukemia (WT1+ leukemia; HLA allele A0201): 38%
- Cytotoxic CTL response, % vs WT1+ Leukemia (WT1+ leukemia; HLA allele B4001): 65%
- Cytotoxic CTL response, % vs WT1+ leukemia (WT1+ leukemia; HLA allele B4001): 65%
- Cytotoxic CTL response, % vs WT1- leukemia (WT1- leukemia; HLA allele A0201): 0%
- Cytotoxic CTL response, % vs WT1- leukemia (WT1- leukemia; HLA allele B4001): 3%
- Cytotoxic CTL response, % vs WT1 peptide loaded autologous APC ([1]; HLA allele A0201): 50%
- Cytotoxic CTL response, % vs WT1 peptide loaded autologous APC ([1]; HLA allele B4001): 45%
- Cytotoxic CTL response, % vs PHA blasts (PHA blasts; HLA allele A0201): 3%
- Cytotoxic CTL response, % vs PHA blasts (PHA blasts; HLA allele B4001): 5%
- Cytotoxic CTL response, % vs WT1- autologous APC (WT1- autologous APC; HLA allele A0201): 2%
- Cytotoxic CTL response, % vs WT1- autologous APC (WT1- autologous APC; HLA allele B4001): 0%
- Cytotoxic CTL response, % vs WT1- allo APC with restricting HLA allele ([2]; HLA allele A0201): 1%
- Cytotoxic CTL response, % vs WT1- allo APC with restricting HLA allele ([2]; HLA allele B4001): 0%
- Cytotoxic CTL response, % vs WT1+ allo APC with restricting HLA allele loaded with WT1 peptide ([3]; HLA allele A0201): 21%
- Cytotoxic CTL response, % vs WT1+ allo APC with restricting HLA allele loaded with WT1 peptide ([3]; HLA allele B4001): 31%

Compound: CC(C)C[C@H](NC(=O)[C@@H](N)CCCCN)C(=O)NCC(=O)N[C@@H](C)C(=O)N[C@@H](C)C(=O)N[C@@H](CCC(=O)O)C(=O)N[C@@H](C)C(=O)N[C@@H](CO)C(=O)N[C@@H](C)C(=O)O [SEQ ID NO: 150] (H-KLGAAEASA-OH; N-terminus and C-terminus assumed)
- Cytotoxic CTL response, % vs WT1+ Leukemia (WT1+ leukemia; HLA allele A0201): 37%
- Cytotoxic CTL response, % vs WT1+ leukemia (WT1+ leukemia; HLA allele A0201): 37%
- Cytotoxic CTL response, % vs WT1- leukemia (WT1- leukemia; HLA allele A0201): 10%
- Cytotoxic CTL response, % vs WT1 peptide loaded autologous APC ([1]; HLA allele A0201): 41%
- Cytotoxic CTL response, % vs PHA blasts (PHA blasts; HLA allele A0201): 8%
- Cytotoxic CTL response, % vs WT1- autologous APC (WT1- autologous APC; HLA allele A0201): 3%
- Cytotoxic CTL response, % vs WT1- allo APC with restricting HLA allele ([2]; HLA allele A0201): 2%
- Cytotoxic CTL response, % vs WT1+ allo APC with restricting HLA allele loaded with WT1 peptide ([3]; HLA allele A0201): 22%

Compound: CSCC[C@H](NC(=O)[C@H](CCC(N)=O)NC(=O)[C@H](CCC(N)=O)NC(=O)[C@@H]1CCCN1C(=O)[C@H](CCC(=O)O)NC(=O)[C@H](CO)NC(=O)CNC(=O)[C@H](CO)NC(=O)[C@H](C)N)C(=O)O [SEQ ID NO: 151] (H-ASGSEPQQM-OH; N-terminus and C-terminus assumed)
- Cytotoxic CTL response, % vs WT1+ Leukemia (WT1+ leukemia; HLA allele B3501): 39%
- Cytotoxic CTL response, % vs WT1+ leukemia (WT1+ leukemia; HLA allele B3501): 39%
- Cytotoxic CTL response, % vs WT1- leukemia (WT1- leukemia; HLA allele B3501): 5%
- Cytotoxic CTL response, % vs WT1 peptide loaded autologous APC ([1]; HLA allele B3501): 73%
- Cytotoxic CTL response, % vs PHA blasts (PHA blasts; HLA allele B3501): 9%
- Cytotoxic CTL response, % vs WT1- autologous APC (WT1- autologous APC; HLA allele B3501): 5%
- Cytotoxic CTL response, % vs WT1- allo APC with restricting HLA allele ([2]; HLA allele B3501): 3%
- Cytotoxic CTL response, % vs WT1+ allo APC with restricting HLA allele loaded with WT1 peptide ([3]; HLA allele B3501): 51%

Compound: CC(C)C[C@H](NC(=O)[C@H](C)NC(=O)[C@H](CS)NC(=O)CNC(=O)CN)C(=O)N1CCC[C@H]1C(=O)N[C@H](C(=O)N[C@@H](CO)C(=O)NCC(=O)N[C@@H](C)C(=O)O)C(C)C [SEQ ID NO: 153] (H-GGCALPVSGA-OH; N-terminus and C-terminus assumed)
- Cytotoxic CTL response, % vs WT1+ Leukemia (WT1+ leukemia; HLA allele A0201): 47%
- Cytotoxic CTL response, % vs WT1+ leukemia (WT1+ leukemia; HLA allele A0201): 47%
- Cytotoxic CTL response, % vs WT1- leukemia (WT1- leukemia; HLA allele A0201): 3%
- Cytotoxic CTL response, % vs WT1 peptide loaded autologous APC ([1]; HLA allele A0201): 32%
- Cytotoxic CTL response, % vs PHA blasts (PHA blasts; HLA allele A0201): 6%
- Cytotoxic CTL response, % vs WT1- autologous APC (WT1- autologous APC; HLA allele A0201): 8%
- Cytotoxic CTL response, % vs WT1- allo APC with restricting HLA allele ([2]; HLA allele A0201): 3%
- Cytotoxic CTL response, % vs WT1+ allo APC with restricting HLA allele loaded with WT1 peptide ([3]; HLA allele A0201): 25%

Compound: CC(C)C[C@H](NC(=O)[C@H](CO)NC(=O)CNC(=O)[C@H](Cc1ccc(O)cc1)NC(=O)[C@H](C)NC(=O)[C@@H](N)CO)C(=O)NCC(=O)NCC(=O)N1CCC[C@H]1C(=O)O [SEQ ID NO: 157] (H-SAYGSLGGP-OH; N-terminus and C-terminus assumed)
- Cytotoxic CTL response, % vs WT1+ leukemia (WT1+ leukemia; HLA allele A0201): 0%
- Cytotoxic CTL response, % vs WT1+ Leukemia (WT1+ leukemia; HLA allele B4001): 68%
- Cytotoxic CTL response, % vs WT1+ leukemia (WT1+ leukemia; HLA allele B4001): 68%
- Cytotoxic CTL response, % vs WT1- leukemia (WT1- leukemia; HLA allele A0201): 0%
- Cytotoxic CTL response, % vs WT1- leukemia (WT1- leukemia; HLA allele B4001): 3%
- Cytotoxic CTL response, % vs WT1 peptide loaded autologous APC ([1]; HLA allele A0201): 51%
- Cytotoxic CTL response, % vs WT1 peptide loaded autologous APC ([1]; HLA allele B4001): 41%
- Cytotoxic CTL response, % vs PHA blasts (PHA blasts; HLA allele B4001): 3%
- Cytotoxic CTL response, % vs WT1- autologous APC (WT1- autologous APC; HLA allele A0201): 2%
- Cytotoxic CTL response, % vs WT1- autologous APC (WT1- autologous APC; HLA allele B4001): 2%
- Cytotoxic CTL response, % vs WT1- allo APC with restricting HLA allele ([2]; HLA allele A0201): 5%
- Cytotoxic CTL response, % vs WT1- allo APC with restricting HLA allele ([2]; HLA allele B4001): 8%
- Cytotoxic CTL response, % vs WT1+ allo APC with restricting HLA allele loaded with WT1 peptide ([3]; HLA allele A0201): 31%
- Cytotoxic CTL response, % vs WT1+ allo APC with restricting HLA allele loaded with WT1 peptide ([3]; HLA allele B4001): 24%

Compound: CC(C)C[C@H](NC(=O)[C@H](CC(N)=O)NC(=O)[C@H](CC(=O)O)NC(=O)[C@H](CO)NC(=O)[C@H](CO)NC(=O)[C@H](Cc1ccc(O)cc1)NC(=O)[C@@H]1CCCN1C(=O)[C@@H](NC(=O)[C@@H](N)CCCNC(=N)N)[C@@H](C)O)C(=O)O [SEQ ID NO: 169] (H-RTPYSSDNL-OH; N-terminus and C-terminus assumed)
- Cytotoxic CTL response, % vs WT1+ Leukemia (WT1+ leukemia; HLA allele B3503): 48%
- Cytotoxic CTL response, % vs WT1+ leukemia (WT1+ leukemia; HLA allele B3503): 48%
- Cytotoxic CTL response, % vs WT1+ Leukemia (WT1+ leukemia; HLA allele C0401): 48%
- Cytotoxic CTL response, % vs WT1+ leukemia (WT1+ leukemia; HLA allele C0401): 48%
- Cytotoxic CTL response, % vs WT1- leukemia (WT1- leukemia; HLA allele B3503): 4%
- Cytotoxic CTL response, % vs WT1- leukemia (WT1- leukemia; HLA allele C0401): 4%
- Cytotoxic CTL response, % vs WT1 peptide loaded autologous APC ([1]; HLA allele B3503): 84%
- Cytotoxic CTL response, % vs WT1 peptide loaded autologous APC ([1]; HLA allele C0401): 84%
- Cytotoxic CTL response, % vs PHA blasts (PHA blasts; HLA allele B3503): 1%
- Cytotoxic CTL response, % vs PHA blasts (PHA blasts; HLA allele C0401): 1%
- Cytotoxic CTL response, % vs WT1- autologous APC (WT1- autologous APC; HLA allele B3503): 0%
- Cytotoxic CTL response, % vs WT1- autologous APC (WT1- autologous APC; HLA allele C0401): 0%
- Cytotoxic CTL response, % vs WT1- allo APC with restricting HLA allele ([2]; HLA allele B3503): 3%
- Cytotoxic CTL response, % vs WT1+ allo APC with restricting HLA allele loaded with WT1 peptide ([3]; HLA allele B3503): 31%
